IC50 and EC50 data for one molecule are collected here from US20260297086A1, “CRYSTALLINE PROLYL HYDROXYLASE DOMAIN-CONTAINING PROTEIN (PHD) INHIBITOR AND USES THEREOF” (Insilico Medicine IP Limited, priority 2023, published 2026).

One assay deals with PHD2 (Homo sapiens, UniProt Q9GZT9). Description: PHD2 Enzymatic Assay (AlphaScreen). It is filed as biochemical. Conditions: PHD2 enzyme, 30 min preincubation at RT. Here is the method: Example 1: PHD2 Enzymatic Assay Procedure
Compound DMSO stock preparation: Compound 1 was reconstituted into 20 mM stock by DMSO.
Compound storage: Compound 1 in DMSO was stored at RT in a desiccator for short-term storage (up to 3 months).
• Reference Roxadustat (FG-4592) was 3-fold serial diluted from 400 μM for 10 doses in DMSO. • The compounds were 3-fold serial diluted from 400 μM for 10 doses in DMSO. • Prepared 200× positive control (400 μM, FG-4592) and 200× vehicle control (100% DMSO). • Centrifuged compound plates at 1000 rpm for 1 min.
• a) Transferred 40 nl compound dilutions into each well of assay plates using Echo 655; • b) Sealed the assay plate and centrifuge compound plates at 1000 rpm for 1 min. • c) Prepared and add 4 μL of the 2×PHD2 enzyme working solution to individual well of the assay plate. • d) Sealed the assay plate and centrifuge compound plates at 1000 rpm for 1 min. […]
• ALPHASCREEN signal (ALPcmpd) is calculated for each well • % Inhibition is calculated as follow:
[formula] • ALPpositive: The average ALP for the positive controls across the plate. • ALPvehicle: The average ALP for the negative controls across the plate. • Calculate IC50 and Plot effect-dose curve of compounds: • Calculated IC50 by fitting % inhibition values and log of compound concentrations to nonlinear regression (dose response−variable slope) with Graphpad 8.0. […]
A general note: Bead proximity is the source of the signal in Alpha formats.

The next assay concerns HIF1α (Caco2 cells). The assay is described as follows: Caco2-HIF1α-HiBit assay. It is filed as cell-based. Conditions: Homo sapiens, Caco-2. A general note: HiBiT is a short tag that completes a luciferase, so light tracks the accessible tagged protein.

Sequence of PHD2 (Q9GZT9 whole entry): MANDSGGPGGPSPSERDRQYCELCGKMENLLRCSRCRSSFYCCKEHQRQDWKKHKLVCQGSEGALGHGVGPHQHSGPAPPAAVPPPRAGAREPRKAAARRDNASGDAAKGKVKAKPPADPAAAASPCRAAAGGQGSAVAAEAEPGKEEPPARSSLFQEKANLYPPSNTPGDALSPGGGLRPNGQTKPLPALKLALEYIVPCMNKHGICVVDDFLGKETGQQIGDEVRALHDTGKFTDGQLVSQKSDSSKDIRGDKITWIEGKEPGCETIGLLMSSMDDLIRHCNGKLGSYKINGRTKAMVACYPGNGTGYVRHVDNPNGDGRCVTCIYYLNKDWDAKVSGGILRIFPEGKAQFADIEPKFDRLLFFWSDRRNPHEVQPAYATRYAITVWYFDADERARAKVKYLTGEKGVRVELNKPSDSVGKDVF

Broadly, the IC50 is the concentration at which inhibition is half-maximal. Read a low IC50 as higher potency. As a reminder, the EC50 is the concentration needed to bring the measured effect to its halfway point. A high value points to lower potency in that assay. In turn, `CC(C)(C)OC(=O)N1CCN(c2ccc3c(O)c(C(=O)NCc4ccc(C#N)nc4)ncc3n2)CC1` [Compound 1, tert-butyl 4-(6-(((6-cyanopyridin-3-yl)methyl)carbamoyl)-5-hydroxy-1,7-naphthyridin-2-yl)piperazine-1-carboxylate] came in with an IC50 against PHD2 of less than 5 nM. In the assay with HIF1α (Caco2 cells), the EC50 was less than 2500 nM.
